According to PMC4967823, “A single amino acid substitution in a chitinase of the legume Medicago truncatula is sufficient to gain Nod-factor hydrolase activity” (Open Biology, 2016):

Molecular target: T1, MtCHIT5b (Medicago truncatula, UniProt A0A072UR65)
T1 construct: gene CHIT5B; without predicted signal peptide, N-terminal 6xHis tag (pET28b or pET32a for variants), E. coli BL21(DE3), Ni-NTA
Assay: reverse-phase HPLC (C18) hydrolysis assay
Format: biochemical
Conditions: 25 mM sodium acetate pH 5.0, 37 C
Excerpt: reverse-phase HPLC (C18) hydrolysis assay on MtCHIT5b

T1 sequence (A0A072UR65 27-379): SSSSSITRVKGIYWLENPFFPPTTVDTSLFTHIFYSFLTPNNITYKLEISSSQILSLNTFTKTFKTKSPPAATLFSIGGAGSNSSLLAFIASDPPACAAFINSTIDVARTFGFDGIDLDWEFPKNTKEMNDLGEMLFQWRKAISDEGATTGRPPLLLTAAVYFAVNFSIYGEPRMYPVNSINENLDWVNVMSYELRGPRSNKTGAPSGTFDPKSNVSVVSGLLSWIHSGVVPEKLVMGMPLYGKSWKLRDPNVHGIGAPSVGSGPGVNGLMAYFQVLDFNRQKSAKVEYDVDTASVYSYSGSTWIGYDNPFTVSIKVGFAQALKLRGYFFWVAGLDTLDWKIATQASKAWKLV

## CCCCCC/C=C\CCCCC/C=C/C(=O)N[C@H]1[C@H](O[C@H]2[C@H](O)[C@@H](NC(C)=O)[C@H](O[C@H]3[C@H](O)[C@@H](NC(C)=O)[C@H](O[C@H]4[C@H](O)[C@@H](NC(C)=O)C(O)O[C@@H]4COS(=O)(=O)O)O[C@@H]3CO)O[C@@H]2CO)O[C@H](COC(C)=O)[C@@H](O)[C@@H]1O (some centres unmarked) [NodSm-IV(C16 : 2, Ac, S)]
  Km: 96.9 ± 18.8 µM

## CCCCCC/C=C\CCCCC/C=C/C(=O)N[C@H]1[C@H](O[C@H]2[C@H](O)[C@@H](NC(C)=O)[C@H](O[C@H]3[C@H](O)[C@@H](NC(C)=O)[C@H](O[C@H]4[C@H](O)[C@@H](NC(C)=O)C(O)O[C@@H]4COS(=O)(=O)O)O[C@@H]3CO)O[C@@H]2CO)O[C@H](CO)[C@@H](O)[C@@H]1O (some centres unmarked) [NodSm-IV(C16 : 2, S)]
  Km: 58.6 ± 11.4 µM
